According to patent US20240165109A1, “Methods of Treatment with Selective CB2 Receptor Agonists” (Arena Pharmaceuticals, Inc., priority 2021, published 2024):

What was measured:
human CB2 receptor [1] = molecular target: T1, human CB2 receptor (Homo sapiens, UniProt P34972); test: selectivity for human CB2 receptor versus human CB1 receptor; settings: human CB2 vs human CB1
Description: (§1) Methods of treating pain, including visceral pain with APD371 are described in US patent application publication no. 2020-0078358, which is herein incorporated by reference in its entirety.

rat CB2 receptors = molecular target: T2, rat CB2 receptors (Rattus norvegicus, UniProt Q9QZN9); test: CB2 receptor internalization efficacy relative to CP55,940 (rat); format: cell-based
T2 sequence (Q9QZN9 1-360): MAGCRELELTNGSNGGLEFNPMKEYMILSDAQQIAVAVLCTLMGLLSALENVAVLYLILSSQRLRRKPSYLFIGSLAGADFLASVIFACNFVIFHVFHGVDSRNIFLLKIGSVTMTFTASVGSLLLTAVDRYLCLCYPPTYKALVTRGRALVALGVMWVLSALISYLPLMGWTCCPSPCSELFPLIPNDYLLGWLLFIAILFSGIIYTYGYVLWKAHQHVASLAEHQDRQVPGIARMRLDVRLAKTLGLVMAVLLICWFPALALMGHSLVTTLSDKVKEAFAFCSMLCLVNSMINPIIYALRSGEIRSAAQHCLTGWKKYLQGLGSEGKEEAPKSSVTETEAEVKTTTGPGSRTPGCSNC
Description: as §1

human CB2 receptor [2] = molecular target: T1, human CB2 receptor; test: CB2 receptor internalization efficacy relative to CP55,940 (human); format: cell-based
Description: as §1

osteoarthritis pain = osteoarthritis pain model; format: in vivo
Description: as §1

[3] = system: paclitaxel-induced neuropathic pain; test: paclitaxel-induced neuropathic pain model; settings: in vivo
Description: as §1

[4] = system: painful peripheral diabetic neuropathy; test: painful peripheral diabetic neuropathy model; settings: in vivo
Description: as §1

[5] = system: subjects with irritable bowel syndrome experiencing abdominal pain; settings: 50 mg tid, week 12, subgroup with baseline AAPS >= 6.5 (moderate to severe pain)

T1 sequence (P34972 whole entry): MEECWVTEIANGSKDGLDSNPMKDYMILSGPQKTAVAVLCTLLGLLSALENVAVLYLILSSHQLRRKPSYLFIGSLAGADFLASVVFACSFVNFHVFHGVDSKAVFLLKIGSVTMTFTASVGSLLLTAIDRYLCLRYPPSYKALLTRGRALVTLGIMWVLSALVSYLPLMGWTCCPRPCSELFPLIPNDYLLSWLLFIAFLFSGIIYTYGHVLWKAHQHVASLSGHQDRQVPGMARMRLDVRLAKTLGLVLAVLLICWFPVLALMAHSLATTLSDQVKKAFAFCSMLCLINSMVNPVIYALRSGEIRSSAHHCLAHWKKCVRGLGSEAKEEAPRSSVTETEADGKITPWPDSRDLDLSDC

selectivity for the human CB2 receptor versus the human CB1 receptor (human CB2 receptor [1]): > 1,000 fold | receptor internalization efficacy relative to CP55,940 (rat CB2 receptors): 105% | receptor internalization efficacy relative to CP55,940 (human CB2 receptor [2]): 96%
Compound: CC(C)(C)[C@@H](CO)NC(=O)c1nn(-c2c[n+]([O-])ccn2)c2c1C[C@@H]1C[C@H]21 [Compound A, (1aS,5aS)-2-(4-Oxy-pyrazin-2-yl)-1a,2,5,5a-tetrahydro-1H-2,3-diaza-cyclopropa[a]pentalene-4-carboxylic acid ((S)-1-Hydroxymethyl-2,2-dimethyl-propyl)-amide]
efficacy in model of osteoarthritis pain (osteoarthritis pain; in vivo): sustained efficacy | duration of in vivo efficacy following dosing (osteoarthritis pain; osteoarthritis pain model, despite rapidly declining plasma concentrations): maintained in vivo efficacy for four hours following dosing | efficacy in model of paclitaxel-induced neuropathic pain [3]: sustained efficacy | efficacy in model of painful peripheral diabetic neuropathy [4]: sustained efficacy | reduction in AAPS from baseline [5]: 3.93 points | reduction in AAPS compared to placebo ([5]; p=0.01): 1.64 points
